From the supplement of paper PMC13380429
± gives the standard deviation of the averaged measurements.

What was measured:
Conditions in all cases: 72 h
HepG2 [1] = assay: relative viability EC50 (midpoint between 100% and the lowest measured viability); higher = less toxic
Vero E6 [2] = assay: as above
U2OS [3] = assay: as above
Caco-2 [4] = assay: as above
Calu-3 [5] = assay: as above
HepG2 [6] = assay: drug sensitivity score (DSS) for viability; higher = more toxic; extreme values may be limits of the assay
Vero E6 [7] = assay: as above
U2OS [8] = assay: as above
Caco-2 [9] = assay: as above
Calu-3 [10] = assay: as above
HepG2 [11] = assay: cell viability relative to DMSO; higher = less toxic
Vero E6 [12] = assay: as above
U2OS [13] = assay: as above
Caco-2 [14] = assay: as above
Calu-3 [15] = assay: as above

Row | Compound | relative viability EC50 (HepG2 [1]) | relative viability EC50 (Vero E6 [2]) | relative viability EC50 (U2OS [3]) | relative viability EC50 (Caco-2 [4]) | relative viability EC50 (Calu-3 [5]) | drug sensitivity score (HepG2 [6]) | drug sensitivity score (Vero E6 [7]) | drug sensitivity score (U2OS [8]) | drug sensitivity score (Caco-2 [9]) | drug sensitivity score (Calu-3 [10]) | cell viability (HepG2 [11]; 1 nM) | cell viability (HepG2 [11]; 10 nM) | cell viability (HepG2 [11]; 100 nM) | cell viability (HepG2 [11]; 1000 nM) | cell viability (HepG2 [11]; 10000 nM) | cell viability (Vero E6 [12]; 1 nM) | cell viability (Vero E6 [12]; 10 nM) | cell viability (Vero E6 [12]; 100 nM) | cell viability (Vero E6 [12]; 1000 nM) | cell viability (Vero E6 [12]; 10000 nM) | cell viability (U2OS [13]; 1 nM) | cell viability (U2OS [13]; 10 nM) | cell viability (U2OS [13]; 100 nM) | cell viability (U2OS [13]; 1000 nM) | cell viability (U2OS [13]; 10000 nM) | cell viability (Caco-2 [14]; 1 nM) | cell viability (Caco-2 [14]; 10 nM) | cell viability (Caco-2 [14]; 100 nM) | cell viability (Caco-2 [14]; 1000 nM) | cell viability (Caco-2 [14]; 10000 nM) | cell viability (Calu-3 [15]; 1 nM) | cell viability (Calu-3 [15]; 10 nM) | cell viability (Calu-3 [15]; 100 nM) | cell viability (Calu-3 [15]; 1000 nM) | cell viability (Calu-3 [15]; 10000 nM)
1 | CC(C)Oc1cccc(CC(=O)N2CCC[C@](CC[N+]34CCC(c5ccccc5)(CC3)CC4)(c3ccc(Cl)c(Cl)c3)C2)c1 | > 10 µM | > 10 µM | > 10 µM | > 10 µM | > 10 µM | 0 | 0 | 0 | 0 | 0 | 110% | 84.1% | 104% | 91% | 95.7% | 101% | 98.2% | 100% | 95.8% | 97% | 96.8% | 99.4% | 96.8% | 99.3% | 98.8% | 102% | 99.7% | 100% | 97.9% | 91.8% | 87.6% | 98.1% | 91.1% | 92.5% | 99.1%
2 | CNC(=O)c1c(-c2ccc(F)cc2)oc2cc(N(CCO)S(C)(=O)=O)c(C3CC3)cc12 [nesbuvir] | > 10 µM | > 10 µM | > 10 µM | > 10 µM | > 10 µM | 0 | 0 | 0 | 0 | 0 | 97.3% | 90% | 103% | 92.2% | 107% | 98.4% | 97% | 98.6% | 93.6% | 103% | 93.3% | 102% | 96.4% | 99.9% | 102% | 94% | 101% | 95% | 99% | 101% | 108% | 107% | 99.9% | 110% | 103%
3 | Fc1cc(F)c2c(c1)[C@H]1C=CC[C@H]1C(c1cccnc1)N2 (stereo not given in full) [Golgicide A] | 3.48 µM | 3.2 µM | 3.46 µM | 2.97 µM | 3.01 µM | 4.5 | 5.3 | 5.1 | 4 | 4.7 | 121% | 108% | 102% | 105% | 10.9% | 111% | 108% | 105% | 100% | 4.4% | 103% | 101% | 105% | 105% | 1.7% | 108% | 103% | 101% | 98.2% | 31.5% | 103% | 108% | 108% | 98.2% | 19%
4 | O[C@@H](Cc1ccncc1)C(Cl)(Cl)Cl [PETCM] | > 10 µM | > 10 µM | > 10 µM | > 10 µM | > 10 µM | 0 | 0 | 0 | 0 | 0 | 101% | 103% | 95.2% | 99.3% | 97.8% | 94.7% | 97.1% | 96% | 102% | 98.2% | 98.8% | 93.3% | 99.1% | 93.3% | 99.1% | 99.4% | 95.8% | 103% | 98.7% | 105% | 98.8% | 89.8% | 114% | 95.3% | 110%
5 | Cc1nc(C)c(Cl)c(O)c1Cl [clopidol] | > 10 µM | > 10 µM | > 10 µM | > 10 µM | > 10 µM | 0 | 0 | 0 | 0 | 0 | 100% | 99.9% | 104% | 99.2% | 116% | 96.9% | 95.9% | 101% | 96.6% | 95.2% | 98.3% | 96.2% | 92.4% | 97.7% | 92.5% | 96.9% | 100% | 94.1% | 99.2% | 92.7% | 105% | 94.2% | 93.6% | 101% | 102%
6 | COc1c(Nc2ccc(S(C)(=O)=O)nc2C)ncnc1OC1CCN(C(=O)OC(C)C)CC1 [APD597] | > 10 µM | > 10 µM | > 10 µM | > 10 µM | > 10 µM | 0.1 | 0 | 0 | 0 | 0 | 99.6% | 104% | 94.4% | 94.6% | 86.3% | 106% | 98.2% | 97% | 100% | 95.5% | 99.5% | 99.1% | 99.6% | 99.7% | 100% | 96.5% | 96.2% | 103% | 93.4% | 90.2% | 106% | 105% | 106% | 109% | 98.7%
7 | C[C@](N)(Cc1ccc(O)c(O)c1)C(=O)O [methyldopa] | > 10 µM | > 10 µM | > 10 µM | > 10 µM | > 10 µM | 0 | 0 | 0 | 0 | 0 | 94.1% | 97.4% | 104% | 92.3% | 108% | 99.2% | 102% | 94.5% | 97.9% | 106% | 101% | 103% | 96.7% | 97.8% | 93.1% | 97.5% | 103% | 89.8% | 106% | 99.9% | 96.9% | 102% | 101% | 98.9% | 93.6%
8 | O=C(Nc1ccc(Cl)cc1)Nc1cccc(-c2cccc(N3CCCC3)n2)c1 [PSNCBAM-1] | > 10 µM | > 10 µM | > 10 µM | > 10 µM | > 10 µM | 0 | 0 | 0 | 0 | 0 | 101% | 110% | 102% | 102% | 99.1% | 108% | 96.7% | 102% | 105% | 91.8% | 98.8% | 102% | 96.6% | 98.7% | 102% | 98.3% | 91.9% | 96.2% | 93.7% | 99.4% | 102% | 98.9% | 95% | 97.9% | 104%
9 | NS(=O)(=O)c1cc(C(=O)O)cc(N2CCCC2)c1Oc1ccccc1 [piretanide] | > 10 µM | > 10 µM | > 10 µM | > 10 µM | > 10 µM | 0 | 0 | 0 | 0 | 0 | 101% | 99.7% | 85.1% | 105% | 110% | 98.5% | 100% | 93.3% | 101% | 105% | 95.5% | 96.7% | 101% | 98.4% | 103% | 90.2% | 97.4% | 106% | 104% | 110% | 90% | 98.7% | 90.5% | 94.8% | 101%
10 | OCC(O)CN1CCN(c2ccccc2)CC1 (stereo not given) [dropropizine] | > 10 µM | > 10 µM | > 10 µM | > 10 µM | > 10 µM | 0.1 ± 0.14 | 0 | 0 | 0 | 0 | 94.8 ± 4.6% | 101 ± 4.9% | 102 ± 1.6% | 99.5 ± 3.2% | 88.9 ± 5.2% | 96.6 ± 7.5% | 95.8 ± 1.5% | 94.2 ± 8.5% | 96.7 ± 6.7% | 103 ± 8.4% | 99.9 ± 5% | 97.3 ± 4.9% | 100.5 ± 0.49% | 97.7 ± 0.14% | 102.8 ± 0.35% | 89.7 ± 5% | 85.2 ± 12% | 97.8 ± 2.9% | 91.9 ± 0.57% | 96.3 ± 9.9% | 106 ± 1.6% | 97.85 ± 0.64% | 104 ± 4.5% | 99.6 ± 1.3% | 97.85 ± 0.21%
11 | Cc1ccc2c(c1)[C@]13CCCC[C@@H]1[C@H](C2)N(C)CC3 [dimemorfan] | > 10 µM | > 10 µM | > 10 µM | > 10 µM | > 10 µM | 0 | 0 | 0 | 0 | 0 | 105% | 103% | 99% | 95.3% | 101% | 101% | 103% | 104% | 98.7% | 106% | 96.8% | 102% | 95.7% | 101% | 93.7% | 93.5% | 96.5% | 94.6% | 103% | 91.8% | 89.1% | 95.5% | 89.1% | 89.2% | 98.7%
12 | Cc1cc(Cn2cnc3c2C[C@@H](C(=O)O)N(C(=O)C(c2ccccc2)c2ccccc2)C3)ccc1N(C)C | > 10 µM | > 10 µM | > 10 µM | > 10 µM | > 10 µM | 0 | 0 | 0 | 0 | 0 | 101% | 90.7% | 105% | 99.9% | 110% | 96.5% | 90.4% | 99.3% | 96.5% | 103% | 93.3% | 102% | 96% | 103% | 107% | 91.4% | 97.9% | 94.1% | 108% | 110% | 87.3% | 106% | 103% | 98.1% | 114%
13 | Cc1ccccc1-c1cc(N2CCN(C)CC2)ncc1N(C)C(=O)C(C)(C)c1cc(C(F)(F)F)cc(C(F)(F)F)c1 [netupitant] | > 10 µM | > 10 µM | > 10 µM | > 10 µM | > 10 µM | 0 | 0 | 0 | 0 | 0 | 95% | 98.2% | 104% | 97.9% | 95.6% | 106% | 108% | 103% | 104% | 97.5% | 102% | 99% | 101% | 99.4% | 96.5% | 93.2% | 92.6% | 91.5% | 96% | 95.2% | 94.8% | 101% | 105% | 112% | 102%
14 | C[C@H]1COc2c(C3(N)CC3)c(F)cc3c(=O)c(C(=O)O)cn1c23 [pazufloxacin] | > 10 µM | > 10 µM | > 10 µM | > 10 µM | > 10 µM | 0 | 0 | 0 | 0 | 0 | 88.8% | 107% | 101% | 98.9% | 99.4% | 93.7% | 103% | 103% | 94.6% | 99.2% | 103% | 103% | 100% | 99.9% | 97.3% | 103% | 93.5% | 90.3% | 99.2% | 102% | 96.9% | 98.7% | 90.6% | 101% | 89.3%
15 | O=C(O)CCCc1ccc(N(CCCl)CCCl)cc1 [chlorambucil] | > 10 µM | > 10 µM | > 10 µM | > 10 µM | > 10 µM | 0.3 | 0 | 0 | 0 | 0 | 103% | 100% | 104% | 101% | 83.9% | 102% | 102% | 100% | 98.2% | 97.9% | 104% | 99.7% | 101% | 97.3% | 105% | 94.9% | 90.6% | 98.2% | 91.8% | 90.2% | 93% | 102% | 94.5% | 101% | 97.6%
